Assay results published in article PMC13316043, “Structural basis of NSD2 degradation via targeted recruitment of SCF-FBXO22” (Nature Communications, 2026).

How the values were obtained:
[1] = biological target: T1, NSD2 (Homo sapiens, UniProt O96028); assay: Western blot of NSD2 in U2OS cells; assay type: cell-based; conditions: 300 nM, 6 h
T1 construct: endogenous in cells; host or cells: U2OS (ATCC)
T1 sequence (O96028 1-1365): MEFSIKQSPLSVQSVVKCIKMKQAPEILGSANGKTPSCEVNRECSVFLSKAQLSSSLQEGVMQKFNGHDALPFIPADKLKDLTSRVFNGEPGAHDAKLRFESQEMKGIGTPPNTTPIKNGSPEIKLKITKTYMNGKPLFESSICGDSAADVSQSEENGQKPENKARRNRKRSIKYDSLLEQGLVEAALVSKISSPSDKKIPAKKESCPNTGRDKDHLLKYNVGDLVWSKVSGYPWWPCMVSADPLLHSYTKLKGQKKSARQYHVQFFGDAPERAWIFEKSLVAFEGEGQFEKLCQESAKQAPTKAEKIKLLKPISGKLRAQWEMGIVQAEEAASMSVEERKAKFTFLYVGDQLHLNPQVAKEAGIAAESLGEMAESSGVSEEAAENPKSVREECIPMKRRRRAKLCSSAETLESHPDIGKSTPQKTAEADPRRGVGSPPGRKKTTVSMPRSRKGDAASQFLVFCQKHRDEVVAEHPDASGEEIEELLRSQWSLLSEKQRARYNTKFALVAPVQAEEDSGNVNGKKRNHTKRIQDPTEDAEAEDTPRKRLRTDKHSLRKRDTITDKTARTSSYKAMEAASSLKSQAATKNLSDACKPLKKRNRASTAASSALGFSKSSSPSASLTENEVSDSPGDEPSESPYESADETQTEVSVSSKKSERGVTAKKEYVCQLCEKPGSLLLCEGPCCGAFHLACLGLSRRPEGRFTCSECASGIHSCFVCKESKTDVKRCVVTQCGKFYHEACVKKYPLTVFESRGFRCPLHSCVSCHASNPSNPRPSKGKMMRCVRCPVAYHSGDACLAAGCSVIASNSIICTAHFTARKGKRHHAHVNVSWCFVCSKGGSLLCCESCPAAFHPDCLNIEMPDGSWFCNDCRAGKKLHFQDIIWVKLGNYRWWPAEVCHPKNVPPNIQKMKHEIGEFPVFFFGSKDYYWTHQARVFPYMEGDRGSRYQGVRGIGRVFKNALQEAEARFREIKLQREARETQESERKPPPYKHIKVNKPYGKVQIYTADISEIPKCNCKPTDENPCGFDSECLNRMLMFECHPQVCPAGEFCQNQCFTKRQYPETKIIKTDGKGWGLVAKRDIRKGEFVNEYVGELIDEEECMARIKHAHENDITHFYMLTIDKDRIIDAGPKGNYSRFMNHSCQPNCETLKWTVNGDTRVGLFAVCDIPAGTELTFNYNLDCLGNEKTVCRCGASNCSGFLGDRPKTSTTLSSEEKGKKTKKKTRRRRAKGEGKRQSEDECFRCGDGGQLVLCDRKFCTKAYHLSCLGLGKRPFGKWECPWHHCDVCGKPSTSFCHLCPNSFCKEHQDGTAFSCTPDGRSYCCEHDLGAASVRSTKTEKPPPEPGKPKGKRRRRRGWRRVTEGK
Description: HEK293T and U2OS were obtained from ATCC and cultured in high-glucose-containing Dulbecco’s Modified Eagle’s Medium (DMEM; Gibco; cat. #11995) supplemented with 10% fetal bovine serum (VWR) and 1% penicillin/streptomycin (Gibco). Cells were treated with either UNC10415667, UNC12149, UNC12567, hemin (Sigma; cat. #H9039), or DMSO control for the indicated times and analyzed by western blot using standard procedures. Briefly, cells were lysed on ice for 15 min in NETN lysis buffer (20 mM Tris pH 8.0, 100 mM NaCl, 0.5 mM EDTA, 0.5% NP40) supplemented with 10 µg/mL aprotinin, 10 µg/mL leupeptin, 10 µg/mL pepstatin A, 1 mM sodium orthovanadate, 1 mM sodium fluoride, and 1 mM AEBSF (4-[two aminoethyl] benzenesulfonyl fluoride). Cell lysates were centrifuged at 20,000×g in a benchtop microcentrifuge at 4 °C for 10 min. Protein concentration was determined by Bradford assay (Bio-Rad; cat. #5000006). Protein concentration was normalized using Laemmli buffer. Samples were heated for 5 min at 95°C in a dry water-bath. Samples were separated on TGX stain free gels (Bio-Rad) transferred to nitrocellulose membrane and blocked in 5% non-fat dry milk (Biorad; cat. #1706404) diluted in 1x TBS-T (137 mM NaCl, 2.7 mM KCl, 25 mM Tris pH 7.6, 1% Tween-20). […]

[2] = test system: U2OS cells; assay: CellTiter-Glo cell viability assay; assay type: cell-based, human; conditions: 1 µM, 6 h
Description: The cell viability of NSD2 HiBiT U2OS P112 and parental U2OS cell lines treated with NSD2 degrader was determined by the CellTiter-Glo 2.0 Cell Viability Assay (Promega, G9242). 384-well plates (Corning) with cells and the reagent were equilibrated to the room temperature before detection. The reagent was added to the assay plate according to the product instruction and allowed to incubate on an orbital shaker for 3 min at room temperature before subjecting the plate to the GloMax luminometer (Promega). The data and graphs were then analyzed and generated using GraphPad Prism (v 10.4.1)

| NSD2 level by western blot [1] | SMILES | cell viability [2] |
| --- | --- | --- |
| undetectable | Cc1cc(C=O)ccc1C(=O)N1CCc2cc(NC(=O)c3ccc(CN(C(=O)c4ccc5c(c4)OCC(=O)N5)C4CC4)cc3)ccc2C1 [UNC12149] |  |
|  | O=Cc1ccc(C(=O)N2CCc3cc(NC(=O)c4ccc(CN(C(=O)c5ccc6c(c5)OCC(=O)N6)C5CC5)cc4)ccc3C2)cc1 [UNC10415667] | did not impact cell viability |
